The source made the active and inactive calls. The calls are words filed in the database; no cut-off is given here.
How the values were obtained:
[1] = system: A549; assay: Cytotoxicity against human A549 cells after 4 days by MTT assay; assay type: functional, cell-based; settings: A549, 96 h
[2] = system: Plasmodium falciparum; assay: Antiplasmodial activity against Plasmodium falciparum 3D7 infected in red blood cells after 48 hrs; assay type: functional, organism-based; settings: 3D7, 48 h
[3] = system: A549; assay: Cytotoxicity against human A549 cells after 3 days by MTT assay; assay type: functional, cell-based; settings: A549, 72 h
[4] = system: B16; assay: Cytotoxicity against mouse B16 cells after 3 days by MTT assay; assay type: functional, cell-based; settings: B16, 72 h
[5] = system: Escherichia coli; assay: Alkylating activity at N3 position of 5'-AAAAA-3' (865) in Escherichia coli pUC18 DNA at 0.1 uM after 5 hrs by electrophoresis analysis; assay type: functional
[6] = system: A549; assay: Induction of apoptosis in human A549 cells assessed as decrease in survivin level at 0.1 uM incubated for 5 hrs followed by 24 hrs incubation in drug free medium by immunoblotting based confocal microscopy; assay type: functional, cell-based
[7] = system: A549; assay: Induction of apoptosis in human A549 cells assessed as decrease in Bcl-xL level at 0.05 to 20 uM incubated for 5 hrs followed by 24 hrs incubation in drug free medium by immunoblotting based confocal microscopy; assay type: functional, cell-based
[8] = system: A549; assay: Induction of apoptosis in human A549 cells assessed as increase in gamma-H2AX level at 0.1 to 10 uM incubated for 5 hrs followed by 24 hrs incubation in drug free medium by immunofluorescence assay; assay type: functional, cell-based
[9] = system: A549; assay: Induction of apoptosis in human A549 cells assessed as increase in gamma-H2AX level at 0.1 to 5 uM incubated for 5 hrs followed by 24 hrs incubation in drug free medium by confocal microscopy; assay type: functional, cell-based
[10] = system: Escherichia coli; assay: Alkylating activity at N3 position of 5'-AAAAA-3' (865) in Escherichia coli pUC18 DNA at 1 uM after 5 hrs by electrophoresis analysis; assay type: functional
[11] = system: Escherichia coli; assay: Induction of DNA cleavage at AT-mixed sequence 5'-TTTTA-3'(843) in Escherichia coli pUC18 DNA at 0.1 to 30 uM after 5 hrs by electrophoresis analysis
[12] = Drug uptake in nucleus of human A549 cells at 1 uM after 24 hrs by propidium iodide staining based confocal microscopy; assay type: ADME, subcellular; settings: a549, 24 h
[13] = Drug uptake in nucleus of human A549 cells at 50 to 100 uM after 24 hrs by mitrotracker red CMXRos staining based fluorescence microscopy; assay type: ADME, subcellular; settings: a549, 24 h
[14] = system: A549; assay: Induction of apoptosis in human A549 cells assessed as decrease in survivin level at 1 to 20 uM incubated for 5 hrs followed by 24 hrs incubation in drug free medium by immunoblotting based confocal microscopy; assay type: functional, cell-based
[15] = system: A549; assay: Induction of apoptosis in human A549 cells assessed as decrease in Bcl-xL level at 0.1 to 20 uM incubated for 5 hrs followed by 24 hrs incubation in drug free medium by immunoblotting based confocal microscopy; assay type: functional, cell-based
[16] = system: A549; assay: Induction of apoptosis in human A549 cells assessed as increase in cleaved caspase 3 level at 1 uM incubated for 5 hrs followed by 24 hrs incubation in drug free medium by immunofluorescence assay; assay type: functional, cell-based

Row | Activity [11] | Drug uptake [12] | Drug uptake [13] | Compound | IC50 [1] [nM] | IC50 [2] [nM] | IC50 [3] [nM] | IC50 [4] [nM] | Activity [5] | Activity [6] | Activity [7] | Activity [8] | Activity [9] | Activity [10] | Activity [14] | Activity [15] | Activity [16]
1 | – | – | – | COc1cc2cc(C(=O)N3CC(CCl)c4c3cc(O)c3ccoc43)[nH]c2c(OC)c1OC (stereo not given) | 3.7 | 0.064 | 53 | 40 | Active | Active | inactive | Active | Active | – | – | – | –
2 | Active | Active | Active | COc1ccc(-c2nc3ccc(C(=O)N4CC(CCl)c5c4cc(O)c4ccoc54)cc3[nH]2)cc1 (stereo not given) | 26 | 3.7 | – | – | – | – | – | Active | Active | Active | Active | inactive | Active
